Test system: Vibrio anguillarum (V-775)
Assay: Vaccine augmentation in Rainbow trout challenged with Vibrio anguillarum
Assay type: in vivo, Rainbow trout (Oncorhynchus mykiss)
Description: In the present investigation, fish were obtained and inoculated at approximately 12 weeks of age. Immunologic studies were conducted under a variety of conditions in which fish were provided with vaccination to observe vaccine augmentation, and under conditions in which no vaccine was provided prior to inoculum. The effects of exposure time, HM897 concentration, and vaccine on mortalities relative to control studies in which no HM897 was administered provided data for analysis of the immunologic effect of HM897.
The study was conducted using Rainbow trout (Oncorhynchus mykiss) to compare the effects of a standard fish vaccine to the protection provided by varying dosages of HM897. The fish were challenged with Vibrio anguillarum (V-775), a bacteria that causes fatal vibriosis, typically 3-5 days following pathogen exposure.
Rainbow Trout (Oncorhynchus mykiss) weighing approximately 5 grams were used as test organisms. The fish were obtained from Cran-Mar Trout Farm. Upon arrival at BRL's facility, the fish were quarantined for a minimum of seven days, and observed to be disease free. During this period, the fish were held at a stable temperature. There was consistent water quality in an aerated flow-through system with a flow rate of approximately 30 liters per hour. During the holding period the fish were observed daily for signs of disease, stress, injury, hemorrhaging, and external parasite. The fish were not fed 48 hours prior to testing.
The Rainbow trout used in this study weighed an average of 5 grams. The fish were divided into 21 groups with 50 fish per group. Each group of 50 fish was maintained in two 10-gallon tanks (25 fish/tank).
The level of bacterial dilution to achieve a LD75 (the level designed to kill 75% of the non-vaccinated fish) was a dilution of 10^−4. to 10^−5. The challenge bacteria were grown for 48 hours at 25° C in trypticase soy broth. The 10^−4 dilution was made from this broth in 0.9% saline. All fish excepting the control group that received no bacterial challenge were inoculated 7 days after exposure to HM897.
Rainbow trout hatchling were exposed to the concentration of HM897 as described below. Some of the fish had been vaccinated while others had received no vaccination. In each tank, fifty vaccinated or unvaccinated fish were exposed for a period of 5 minutes to HM897, and then removed and placed in an assigned tank according to the group number.
The positive control group (III) received a vaccine made from Vibrio anguillarum (V-775). This was made through a fermentation and extraction process in the BRL laboratory facility and is equivalent to the aquaculture industry standard vibrio vaccine.
All groups scheduled to be challenged with the Vibrio anguillarum bacterium were challenged at the LD75 dilution on day seven of the experiment by i.p. injection of 0.1 mL of 10^−4 bacterial dilution. The fish were observed daily for mortalities.

Measured: Cumulative Mortalities

Thr-Ala-Glu-Glu-Lys (TAEEK) [HM897]
32: Day 15, Group Vb: not vaccinated, HM897 25 μg/38 liters | Day 15, Group Vc: not vaccinated, HM897 75 μg/38 liters
33: Day 16, Group Va: not vaccinated, HM897 10 μg/38 liters | Day 16, Group Vb: not vaccinated, HM897 25 μg/38 liters | Day 16, Group Vc: not vaccinated, HM897 75 μg/38 liters
1: Day 11, Group Vc: not vaccinated, HM897 75 μg/38 liters | Day 12, Group Vc: not vaccinated, HM897 75 μg/38 liters | Day 13, Group IVa: vaccinated, HM897 2.5 μg/38 liters | Day 13, Group IVb: vaccinated, HM897 10 μg/38 liters | Day 13, Group IVc: vaccinated, HM897 50 μg/38 liters
13: Day 16, Group IVa: vaccinated, HM897 2.5 μg/38 liters | Day 17, Group IVa: vaccinated, HM897 2.5 μg/38 liters
21: Day 13, Group Vc: not vaccinated, HM897 75 μg/38 liters
16: Day 13, Group Va: not vaccinated, HM897 10 μg/38 liters | Day 15, Group IVd: vaccinated, HM897 100 μg/38 liters
10: Day 15, Group IVa: vaccinated, HM897 2.5 μg/38 liters | Day 15, Group IVc: vaccinated, HM897 50 μg/38 liters | Day 16, Group IVc: vaccinated, HM897 50 μg/38 liters | Day 17, Group IVc: vaccinated, HM897 50 μg/38 liters
7: Day 14, Group IVa: vaccinated, HM897 2.5 μg/38 liters | Day 17, Group IVb: vaccinated, HM897 10 μg/38 liters
5: Day 14, Group IVb: vaccinated, HM897 10 μg/38 liters | Day 14, Group IVc: vaccinated, HM897 50 μg/38 liters
17: Day 16, Group IVd: vaccinated, HM897 100 μg/38 liters
28: Day 15, Group Va: not vaccinated, HM897 10 μg/38 liters
25: Day 14, Group Vb: not vaccinated, HM897 25 μg/38 liters
6: Day 15, Group IVb: vaccinated, HM897 10 μg/38 liters | Day 16, Group IVb: vaccinated, HM897 10 μg/38 liters
8: Day 13, Group IVd: vaccinated, HM897 100 μg/38 liters
24: Day 14, Group Va: not vaccinated, HM897 10 μg/38 liters
0: Day 1, Group IVa: vaccinated, HM897 2.5 μg/38 liters | Day 1, Group IVb: vaccinated, HM897 10 μg/38 liters | Day 1, Group IVc: vaccinated, HM897 50 μg/38 liters | Day 1, Group IVd: vaccinated, HM897 100 μg/38 liters | Day 1, Group Va: not vaccinated, HM897 10 μg/38 liters | Day 1, Group Vb: not vaccinated, HM897 25 μg/38 liters | Day 1, Group Vc: not vaccinated, HM897 75 μg/38 liters | Day 1, Group Vd: not vaccinated, HM897 150 μg/38 liters | Day 2.10, Group IVa: vaccinated, HM897 2.5 μg/38 liters | Day 2.10, Group IVb: vaccinated, HM897 10 μg/38 liters | Day 2.10, Group IVc: vaccinated, HM897 50 μg/38 liters | Day 2.10, Group IVd: vaccinated, HM897 100 μg/38 liters | Day 2.10, Group Va: not vaccinated, HM897 10 μg/38 liters | Day 2.10, Group Vb: not vaccinated, HM897 25 μg/38 liters | Day 2.10, Group Vc: not vaccinated, HM897 75 μg/38 liters | Day 2.10, Group Vd: not vaccinated, HM897 150 μg/38 liters | Day 11, Group IVa: vaccinated, HM897 2.5 μg/38 liters | Day 11, Group IVb: vaccinated, HM897 10 μg/38 liters | Day 11, Group IVc: vaccinated, HM897 50 μg/38 liters | Day 11, Group IVd: vaccinated, HM897 100 μg/38 liters | Day 11, Group Va: not vaccinated, HM897 10 μg/38 liters | Day 11, Group Vb: not vaccinated, HM897 25 μg/38 liters | Day 11, Group Vd: not vaccinated, HM897 150 μg/38 liters | Day 12, Group IVa: vaccinated, HM897 2.5 μg/38 liters | Day 12, Group IVb: vaccinated, HM897 10 μg/38 liters | Day 12, Group IVc: vaccinated, HM897 50 μg/38 liters | Day 12, Group IVd: vaccinated, HM897 100 μg/38 liters | Day 12, Group Va: not vaccinated, HM897 10 μg/38 liters | Day 12, Group Vb: not vaccinated, HM897 25 μg/38 liters | Day 12, Group Vd: not vaccinated, HM897 150 μg/38 liters
14: Day 13, Group Vd: not vaccinated, HM897 150 μg/38 liters
18: Day 13, Group Vb: not vaccinated, HM897 25 μg/38 liters
29: Day 14, Group Vc: not vaccinated, HM897 75 μg/38 liters
15: Day 14, Group IVd: vaccinated, HM897 100 μg/38 liters
